According to patent publication US7612036B2, “Peptoid compounds” (University of Wollongong, priority 2001, dated 2009):
Converted amounts (≈) assume the structure as drawn.

Test system: not given
Assay: not given
Conditions: not given
C=CC[C@H](NC(=O)[C@H](CCCCN)NC(=O)Cc1cn(CC=C)c2ccccc12)C(=O)OC showed a melting point of 103 to 106 °C.

Test system: Staphylococcus aureus (ATCC 6538P)
Assay: Antibacterial screen (MIC, 96 well microtitre broth dilution) against S. aureus
Type: cell-based
Conditions: 37° C. for 18 hours, highest dilution of compound that prevented bacterial growth
Description: General Methods for Antibacterial Screens
• SA: Staphylococcus aureus • PA: Pseudomonas aeruginosa • KP: Klebsiella pneumoniae • SP: Streptococcus pneumoniae Bacterial Strains Used: • Staphylococcus aureus (ATCC 6538P) • Pseudonmonas aeruginosa (ATCC 27853) • Klebsiella pneumoniae (IP103623) • Streptococcus pneumoniae (IP53146) Culture Media
Mueller-Hinton Broth Medium (MHB): MHB (Oxoid CM405) was prepared with final concentrations of 1 μg/mL MgCl2 and 2 μg/mL CaCl2. Culture medium was pre-warmed for approximately 2-3 hours at 37° C. before use.
From thawed cryovials, P. aeruginosa, K. pneumoniae and S. aureus were streaked onto Mueller Hinton Agar (MHA), and S. pneumoniae was streaked onto Blood Agar (BA), and plates were incubated overnight at 37° C. For each bacterial strain, 10 cryovials were prepared by looping several colonies into 0.5 mL of 20% glycerol solution. The cryovials were immediately stored at −140° C.
A cryovial was removed from −140° C. storage and thawed at room temperature. An MHA plate was streaked with a loopful of bacterial suspension and incubated overnight at 37° C. to create a parent plate (P1). A daughter plate (D1) was streaked from the parent plate and incubated overnight at 37° C. The parent plate was stored at 4° C. A loop of colony from the daughter plate was used to inoculate a 125 mL flask containing 20 mL of Mueller Hinton Broth (MHB) containing 25 μg/mL CaCl2.2H2O and 12.5 μ/mL MgCl2.6H2O. The flask was shaken at 260 rpm for 18 hours at 37° C. on an orbital incubator shaker. The parent plate (P1) was reused within 9 days to generate another daughter plate (D2), which, in turn, was used to inoculate a broth culture. Parent plates were used twice (to generate D1 and D2 plates) before a new one was prepared from the previously thawed cryovial. The second parent plate (P2) was used to generate two additional daughter plates using the procedure outlined above before being discarded. Cryovials were used twice to prepare parent plates (P1 and P2) before being discarded.
Prepare a 1/10 dilution of Seed Cultures by adding 250 μl of the cultures to 2,250 μl of MHB in a disposable cuvette. Read OD650 and multiply OD650 by a factor of 10 to calculate the optical density of the undiluted culture. Calculate the required dilution factor by dividing the observed OD650 by the standard OD650 for each strain (previously determined in assay optimisation studies).
Prepare sufficient volumes of the final inoculum cultures in pre-warmed MHB (37° C.) by diluting the standardised cultures to the required final concentration. The final dilutions used for each of the bacterial strains were as follows: • K. pneumoniae—10^6 dilution; • P. aeruginosa—10^6 dilution; • S. aureus—10^8 dilution; • S. pneumoniae—10^4 dilution. Assay Procedure (for 96 well Microtiter Plates)
Add 50 microliters of liquid medium to each well of a 96 well microtitre plate. Dissolve test samples in liquid medium. Add 50 microliters of test sample in triplicate to the top row of the microtitre plate, and include a vancomycin control set. Also include a compound negative control well set. Allow inoculated culture medium to incubate at 37° C. for 30 minutes, shaking at 130 rpm. Using a multichannel pipette, mix the contents of the first row and transfer 50 microliters of mixed broth solutions to the next row, change tips and repeat until the last row contains diluted compound or control and discard 50 microliters from the last row. Each well should now contain 50 microliters of diluted compound or negative control medium. Using a multistepper pipette add 50 microliters of inoculum to each well of the plate, save for one row containing the compound negative control, to this row add 50 microliters of liquid broth. Incubate plates at 37° C. for 18 hours, shaking at 100 rpm in an environment of approximately 90% relative humidity. Results were recorded as the highest dilution of compound that prevented bacterial growth (MIC).
With “6-Acetamido-8,11-diaza-9-(3-guanidinopropyl)-12-methoxycarbonyl-7,10-dioxo-[12](3,6)-1H-carbazolophane HCl (9R,12S) [Example 38]” the MIC was 32 µg/mL. In the case of “6-Acetamido-8,11-diaza-9-(3-guanidinopropyl)-12-methoxycarbonyl-7,10-dioxo-[12](3,6)-1H-carbazolophane HCl (9S,12S) [Example 36]”, the MIC is reported as 32 µg/mL. Work on “6-Acetamido-8,11-diaza-14-ene-9-(3-guanidinopropyl)-12-methoxycarbonyl-7,10-dioxo-[12](3,6)-1H-carbazolophane HCl (9R,12S) [Example 37]” yielded an MIC of 64 µg/mL. “6-Acetamido-9-(4-aminobutyl)-8,11-diaza-1-tert-butoxycarbonyl-14-ene-12-methoxycarbonyl-7,10-dioxo-[12](3,6)-1H-carbazolophane HCl (9S,12S) [Example 39A]” gave an MIC of 32 µg/mL. With “6-Acetamido-9-(4-aminobutyl)-8,11-diaza-12-methoxycarbonyl-7,10-dioxo-[12](3,6)-1H-carbazolophane HCl (9R,12S) [Example 42]” the MIC was 64 µg/mL. “6-Acetamido-9-(4-aminobutyl)-8,11-diaza-12-methoxycarbonyl-7,10-dioxo-[12](3,6)-1H-carbazolophane HCl (9S,12S) [Example 40]” showed an MIC of 64 µg/mL. Work on COC(=O)C1CC=CCc2cc3ccccc3c(c2OC)-c2c(OC)c(cc3ccccc23)CC(NC(C)=O)C(=O)NC(CCCCN)C(=O)N1.Cl (single isomer, unassigned) [15 (one isomer)] yielded an MIC of 8 µg/mL. With CCCc1ccc2[nH]c3ccc(CC(NC(C)=O)C(=O)N[C@H](CCCCN)C(=O)N[C@@H](CCC)C(=O)OC)cc3c2c1.Cl (single isomer, unassigned) [44 (another isomer)] the MIC was 64 µg/mL. Compound CCCc1ccc2[nH]c3ccc(CC(NC(C)=O)C(=O)N[C@H](CCCCN)C(=O)N[C@@H](CCC)C(=O)OC)cc3c2c1.Cl (single isomer, unassigned) [44 (one isomer)] has an MIC of 32 µg/mL. For C=CCc1cc2ccccc2c(-c2c(OC)c(CC(NC(C)=O)C(=O)N[C@H](CCCCNC(=O)OC(C)(C)C)C(=O)N[C@@H](CC=C)C(=O)OCc3ccccc3)cc3ccccc23)c1OC (stereo partly drawn) [Example 13A, benzyl (aR/S,2S,5R)-8-acetamido-2-allyl-9-{3-[3′-allyl-2,2′-dimethoxy-1,1′-binaphthyl]}-3,6-diaza-5-(4-{[(tert-butoxy)carbonyl]amino}butyl)-4,7-dioxononanoate], the MIC was 4 µg/mL (≈ 4.45 µM). COC(=O)C1CCCCc2cc3ccccc3c(c2OC)-c2c(OC)c(cc3ccccc23)CC(NC(C)=O)C(=O)NC(CCCCN)C(=O)N1.Cl [Example 15A, (aR/S,7R,10S)-4-acetamido-7-(4-aminobutyl)-6,9-diaza-10-methoxycarbonyl-1(1,3),2(1,3)-di(2-methoxynaphthalena)-5,8-dioxocyclotetradecaphane hydrochloride] gave an MIC of 16 µg/mL. C=CCc1cc2ccccc2c(-c2c(OC)c(CC(NC(C)=O)C(=O)N[C@H](CCCNC(=N)N)C(=O)N[C@@H](CC=C)C(=O)OC)cc3ccccc23)c1OC.Cl (stereo partly drawn) [Example 19A, methyl (aR/S,2S,5R)-8-acetamido-2-allyl-9-[3-(3′-allyl-2,2′-dimethoxy-1,1′-binaphthyl)]-3,6-diaza-5-(3-guanidinopropyl)-4,7-dioxononanoate hydrochloride] showed an MIC of 4 µg/mL. COC(=O)[C@@H]1CC=CCOc2ccc3ccccc3c2-c2c(ccc3ccccc23)OCC(=O)N[C@H](CCCCNC(=N)N)C(=O)N1.Cl [Example 103, (aR,S,7R,10S)-6,9-diaza-3,15-dioxa-5,8-dioxo-7-(4-guanidinobutyl)-10-methoxycarbonyl-1(1,2),2(1,2)-dinaphthalenacyclopentadecaphane-12-ene hydrochloride] gave an MIC of 8 µg/mL. For C=CCOc1ccc2ccccc2c1-c1c(OCCCC(=O)N[C@H](CCCCNC(=N)N)C(=O)N[C@@H](CC=C)C(=O)OC)ccc2ccccc12.Cl [Example 111, methyl (aS/R,2S,5R)-2-allyl-10-(2′-allyloxy-1,1′-binaphth-2-oxy)-3,6-diaza-5-(4-guanidinobutyl)-4,7-dioxodecanoate hydrochloride], the MIC was 8 µg/mL. Compound COC(=O)C1CCC=COc2ccc3ccccc3c2-c2c(ccc3ccccc23)OCCCC(=O)NC(CCCCNC(=N)N)C(=O)N1.Cl [Example 113, (aR/S,9R,12S)-8,11-diaza-9-(4-guanidinobutyl)-12-methoxycarbonyl-1(1,2),2(1,2)-dinaphthalena-3,17-dioxa-7,10-dioxoheptadecaphane-15-ene hydrochloride] has an MIC of 8 µg/mL. In the case of “(aR/S,7R,10S)-4-acetamido-6,9-diaza-10-benzyloxycarbonyl-7-(4-{[(tert-butoxy)carbonyl]amino}butyl)-1(1,3),2(1,3)-di(2-methoxynaphthalena)-5,8-dioxocyclotetradecaphane-12-ene [Example 15B]”, the MIC is reported as 16 µg/mL. “methyl (aR/S,2S,5R)-2-allyl-5-[2-({[(2′-allyloxy-1,1′-binaphthoxymethyl]carbonyl}amino)-3-aza-9-guanidino-4-oxononanoate hydrochloride [Example 101]” showed an MIC of 8 µg/mL.

Same assay, conditions: 37° C. for 18 hours, highest dilution of compound that prevented bacterial growth, hydrochloride
For COC(=O)C1CC=CCc2cc3ccccc3c(c2OC)-c2c(OC)c(cc3ccccc23)CC(NC(C)=O)C(=O)NC(CCCNC(=N)N)C(=O)N1.Cl (single isomer, unassigned) [21A (another isomer)], the MIC was 64 µg/mL. Compound COC(=O)C1CC=CCc2cc3ccccc3c(c2OC)-c2c(OC)c(cc3ccccc23)CC(NC(C)=O)C(=O)NC(CCCNC(=N)N)C(=O)N1.Cl (single isomer, unassigned) [21A (one isomer)] has an MIC of 16 µg/mL.

Same assay, conditions: Staphylococcus aureus, ATCC6538P, 37° C. for 18 hours, highest dilution of compound that prevented bacterial growth, read-out: MIC
For C=CCOc1ccc2ccccc2c1-c1c(OCC(=O)N[C@H](CCCCN)C(=O)N[C@@H](CC=C)C(=O)OC)ccc2ccccc12.Cl [Example 97], the MIC was 4 µg/mL. In the case of C=CCOc1ccc2ccccc2c1-c1c(OCCCC(=O)N[C@H](CCCCN)C(=O)N[C@@H](CC=C)C(=O)OC)ccc2ccccc12.Cl [Example 107, methyl (aS/R,2S,5R)-2-allyl-10-(2′-allyloxy-1,1′-binaphth-2-oxy)-5-(4-aminobutyl)-3,6-diaza-4,7-dioxodecanoate hydrochloride], the MIC is reported as 16 µg/mL. With COC(=O)[C@@H]1C/C=C/COc2ccc3ccccc3c2-c2c(ccc3ccccc23)OCCCC(=O)N[C@H](CCCCN)C(=O)N1.Cl [Example 109] the MIC was 64 µg/mL.

Test system: not given
Assay: not given
Conditions: cited from earlier work
In the case of Cl.Cl.NCC(O)CC1NC(=O)C(N)Cc2cc(ccc2O)-c2ccc(O)c(c2)C(O)C(C(=O)O)NC1=O (stereo not shown) [Biphenomycin A], the toxicity in mice is given as “low toxicity”.

Test system: D-Ala-D-lactate terminus of the peptidoglycan
Assay: not given
Conditions: D-Ala-D-lactate terminus versus D-Ala-D-Ala terminus; cited from earlier work
For CN[C@H](CC(C)C)C(=O)N[C@H]1C(=O)N[C@@H](CC(N)=O)C(=O)N[C@H]2C(=O)N[C@H]3C(=O)N[C@H](C(=O)N[C@H](C(=O)O)c4cc(O)cc(O)c4-c4cc3ccc4O)[C@H](O)c3ccc(c(Cl)c3)Oc3cc2cc(c3O[C@@H]2O[C@H](CO)[C@@H](O)[C@H](O)[C@H]2O[C@H]2C[C@](C)(N)[C@H](O)[C@H](C)O2)Oc2ccc(cc2Cl)[C@H]1O [Vancomycin], the decrease in affinity is listed as “ca. 1000 fold”.
